Assays:
A2780adr cells = assay: Cellular uptake, gold content by ICP-MS; assay type: in vitro ADME, human; conditions: 2 μM, 37 °C
Protocol: The uptake of 1 and 3, and Au1a by cancer cells and non-tumorigenic cells was examined in terms of the gold content in the cell lysates using ICP-MS.
B from 20.1 to 25 min and returned to initial conditions and equilibrated for 3 minutes.
The flow rate was 0.4 mL/min and the injection volume was 2 µL. The UPLC-QTOF-MS chromatograms of 1, 3, 4 and solvent control in acetonitrile were also recorded for the interpretation of UPLC-QTOF-MS chromatograms of the cell lysate.
Cellular uptake experiments. HCT116, A2780 and A2780adr (2×10 5 cells), and MIHA and NCM460 (3.5×10 5 cells) cells were grown on 6-well plates at 37 °C under an atmosphere of 5% CO2 for 48 h. […]
Au1a (2 µM; with 1 vol% DMSO). […] An aliquot of the cell suspension was subjected to Bio-rad protein assay with a microtitre plate reader at the absorbance at 595 nm, using bovine serum albumin as the protein standard. […] The solution mixture was heated at 65 °C with shaking overnight, and the gold content was determined by ICP-MS. […]
then removed and washed with PBS solution. The cells were then incubated with culture medium containing nanostructures of 1 (2 µM) and CellEvent Caspase-3/7 Green ReadyProbes Reagent (30 µL), or Au1a (2 µM; with 1 vol% DMSO) and CellEvent Caspase-3/7 Green ReadyProbes Reagent (30 µL) at 37 °C under an atmosphere of 5% CO2. […]

HCT116 cells = assay: FITC-Annexin V staining and flow cytometry; assay type: cell-based, human; conditions: HCT116, 2 μM, 24 h
Protocol: (§1) The induction of apoptosis of HCT116 and NCM460 cells by 1 was further studied using FITC-Annexin V staining. […] The quantity of apoptotic cells stained by FITC-Annexin V after treatment with 1 or Au1a was also investigated by flow cytometry. […]
(§2) with gold(III) complexes and FITC-annexin V staining. HCT116 (1×10 5 cells) and […]
(§3) annexin-binding buffer solution. The cells were then incubated with FITC-annexin V […]
(§4) at room temperature in dark for 15 min. The solution was then removed, and the cells were washed with annexin-binding buffer solution. Fluorescence images were then […]
(§5) in ice and analyzed by flow cytometry immediately. […]
(§6) staining and flow cytometry.

NCM460 cells = assay: FITC-Annexin V staining and flow cytometry; assay type: cell-based, human; conditions: NCM460, 2 μM, 24 h
Protocol: as §1, §2, §3, §4, §5, §6

[1] = Dynamic light scattering of nanostructures in PBS; assay type: physicochemical
Protocol: On the other hand, the almost neutral zeta potentials of the nanostructures of 1 and 2 validated the presence of PEG pendant in the shell of the nanostructures. The identity of gold species in the core of the nanostructures was supported by the good contrast of the core in the TEM images (Fig. 1c and S3a ^†) and energy-dispersive X-ray (EDX) spectra (Fig. 1f).
The gold content in NC1 was confirmed by EDX (Fig. 1g). […]
fetal bovine serum, ʟ-glutamine (2 mM) and penicillin/streptomycin (100 U/mL). […]
Physical measurements and instrumentation. 1H NMR spectra were recorded with a Bruker AVANCE 400 (400 MHz) or DPX-300 (300 MHz) Fourier transform NMR spectrometer at ambient temperature with tetramethylsilane (Me4Si) as an internal reference. MALDI-TOF mass spectra were recorded on a ABI4800 MALDI
TOF/TOF™ Analyzer using α-cyano-4-hydroxycinnamic acid with sodium trifluoroacetate as the matrix. Positive ion electrospray (ESI) mass spectra and ultra-performance liquid chromatography coupled quadrupole-time-of-flight mass spectrometry (UPLC-QTOF-MS) were recorded on a Waters Micromass Q-Tof
Premier quadrupole time-of-flight tandem mass spectrometer. Inductively coupled plasma mass spectra (ICP-MS) were recorded on Agilent 7500a inductively coupled plasma mass spectrometer (Agilent Technologies, CA, U.S.A.). […]

| Molecule | incubation time after which the amount in A2780adr cells decreases (A2780adr cells) | percent of apoptotic cells (FITC-Annexin V, background corrected) (HCT116 cells) | percent of apoptotic cells (FITC-Annexin V, background corrected) (NCM460 cells) | Intensity-averaged signals from dynamic light scattering (hydrodynamic diameter) [1] |
| --- | --- | --- | --- | --- |
| COC(=O)c1ccc(C2=C3C=CC(=N3)C(c3ccccc3)=c3ccc4[n]3[Au+][n]3c(ccc32)C(c2ccccc2)=C2C=CC(=N2)C=4c2ccccc2)cc1.[Cl-] [Compound 3, [Au(TPP–COOCH3)]^+] | 0.75 h | – | – | – |
| [Au(TPP–COO–PEG5000–OCH3)]Cl [Compound 1] | – | 22.5% | 2.4% | 120.8 ± 7.2 nm |
| [Au(TPP–CONH–PEG5000–OCH3)]Cl [Compound 2] | – | – | – | 177.1 ± 81.2 nm |
| C1=Cc2nc1c(-c1ccccc1)c1ccc([n-]1)c(-c1ccccc1)c1nc(c(-c3ccccc3)c3ccc([n-]3)c2-c2ccccc2)C=C1.[Au+3].[Cl-] [Au1a, [Au(TPP)]Cl, reference compound] | 0.5 h | 39.6% | 39.3% | – |
